This is an account of results in patent US8211445B2, “PSM peptides as vaccine targets against methicillin-resistant Staphylococcus” (The United States of America, as represented by the …, priority 2007, dated 2012).

No end group written: not given here. *: point of attachment. For = O=C*

One experiment has as its system MRSA strains. The settings on record: cited from earlier work.
Experiment [1] deals with human neutrophils. Briefly: Lysis of human neutrophils (release of lactate dehydrogenase). It is filed as cell-based. Also on record: key to Neutrophil lysis: x: reduced activity; xx: strongly reduced activity. Conditions: for Neutrophil lysis: pro-inflammatory activity of PSMα3 mutants, relative to wild type PSMα3; for ability to promote neutrophil lysis: compared with wild type PSMα3. The method, then: (§1) Lysis of PMNs by synthetic PSMs or clarified S. aureus culture media was determined essentially as described (Voyich et al., J Infect Dis 194, 1761-70, 2006; Voyich et al., J Immunol 175, 3907-19, 2005). Synthetic PSMs (1 or 10 μg/ml) were added to wells of a 96-well tissue culture plate containing 10^6 PMNs and plates were incubated at 37° C. for up to 3 hours. At the desired times, PMN lysis was determined by release of lactate dehydrogenase (LDH; Cytotoxicity Detection Kit, Roche Applied Sciences). Alternatively, wild-type and isogenic mutant S. aureus strains were cultured for 18 hours at 37° C. in 50 ml TSB with shaking using a 100 ml flask. Bacteria were removed by centrifugation and culture media were sterilized by filtration and stored at −80° C. in aliquots until used. Culture medium was diluted 1:10 in RPMI/H, mixed with human PMNs (10^6) and tested for its ability to cause PMN lysis.
as §1, with “above in Example 2.” for “(Voyich et al., J Infect Dis 194, 1761-70, 2006; Voyich et al., J Immunol 175, 3907-19, 2005).”
(§2) Human neutrophil assays: Human neutrophil isolation, chemotaxis, calcium ion flux, priming, lysis assays, and measurement of IL-8 production were performed as described in Example 2.

Another experiment concerns human PMN. Briefly: Measurement of cytokine production by human PMN (ELISA). Conditions: for IL-8: secretion of IL-8 by human neutrophils, relative to wild type PSMα3; for IL-8 secretion: compared with wild type PSMα3. Also on record: key to IL-8: x: reduced activity; xx: strongly reduced activity. Format: cell-based. The method, then: After isolation and washing, PMN or PBMC were resuspended in RPMI 1640 medium (Sigma) supplemented with 10% human serum, 2 mM L-glutamine, 100 U/ml penicillin, 100 μg/ml streptomycin, 2 mM sodium pyruvate, and 10 mM HEPES. Cells were distributed to a 96-well culture plate at 200 μl and 5×10^5 cells per well. Synthetic PSM peptides or filtered bacterial culture supernatants were diluted in fresh culture medium and added to the plate at 100 μl/well. Plates were incubated at 37° C. in a 5.5% CO2 incubator for 5 hours. Then, the plate was centrifuged at 1500 rpm for 10 minutes, and supernatant was harvested from each well. Mono Mac 6 cells were obtained from DSMZ (Germany), and were grown in RPMI 1640 plus 10% heat inactivated fetal bovine serum (HyClone), 2 mM L-glutamine, 10.0 units/ml penicillin, 10.0 μg/ml streptomycin, 0.2× non-essential amino acid solution, and OPI medium supplement (Sigma). Cells were grown in T75 culture flasks in a 37° C. CO2 incubator and harvested by centrifugation. After removal of supernatant, cells were resuspended in fresh culture medium, counted, and distributed into a 96-well cell culture plate at 100 μl and 2.5×10^5 cells per well. Phorbol 12-myristate 13-acetate (Sigma) was added to a final concentration of 2.5 ng/ml for cell pre-stimulation. The plate was incubated in a 37° C. CO2 incubator for 3 hours. At the end of the pre-stimulation period, synthetic PSM peptides were diluted in culture medium and added to the cells at 100 μl/well. Cells were incubated in a 37° C. CO2 incubator for 20-22 hours, and the plate was centrifuged at 1500 rpm for 10 minutes. Human TNF-α, IL-1β, IL-8, and mouse TNF-α were measured in the culture supernatants with commercial ELISA assay kits (R&D systems) according to the manufacturer's instructions.
as §2
A general note: ELISA stands for enzyme-linked immunosorbent assay.

The subject of experiment [2] is human neutrophils. As to the kind of experiment: Priming of human neutrophils (surface expression of CD11b and gp91phox). Format: cell-based. Also on record: key to CD11b: x: reduced activity; xx: strongly reduced activity. Conditions: for CD11b: surface expression of CD11b on human neutrophils, relative to wild type PSMα3; for ability to increase CD11b expression: compared with wild type PSMα3. The protocol:
(§3) Priming of PMNs by synthetic PSMs was determined by increased surface expression of CD11b and gp91phox (granule exocytosis). PMNs were incubated with 10-10,000 ng/ml PSM, 10 μM fMLP, 10 ng/ml lipopolysaccharide, or 10 μg/ml lipoteichoic acid in 96-well tissue culture plates at 37° C. with rotation for 60 minutes. The assay was terminated by centrifuging cells at 4° C. for 8 minutes at 350×g. Cells were washed twice in cold Dulbecco's phosphate-buffered saline and stained with and isotype control antibody (BD Biosciences) or those specific for CD11b (mAb 44, BD Biosciences) or gp91phox (mAb 7D533). Propidium iodide (0.5 μg/ml) was used to identify dead cells. PMNs were analyzed on a FACSCalibur flow cytometer (Becton Dickinson) and dead cells were excluded with a single gate. Percent positive neutrophils were determined with a marker defined by the boundary of the isotype-matched control antibody.
as §3, with “10-10000” for “10-10,000”, “7D5).” for “7D533).”
as §2

Experiment [3] can be described thus: Immunization of mice with synthetic PSM peptides, PSM-specific antibodies by ELISA. Conditions: 50 μg s.c. with CFA, booster with IFA. It is filed as in vivo, mice (BALB/c). The method, then: In order to determine the immunogenicity of synthetic PSM peptides, mice (BALB/c, female, 6-8 weeks) were injected subcutaneously with 50 μg (100 μL) of each PSM peptide in sterile PBS emulsified with complete Freund's adjuvant (CFA) for primary immunization. A booster injection containing incomplete Freund's adjuvant (IFA) instead of CFA was given to the animals 14 days after the primary immunization. The control group of animals received injections of sterile PBS and adjuvants only. Three blood withdrawals were performed on each mouse. The first two blood samples were collected via retro-orbital route immediately before primary injection and before booster injection, respectively. All animals were sacrificed 21 days after booster injection for the terminal blood samples.
PSM-specific antibodies in mouse serum were determined by ELISA assays. Microtiter plates (Nunc 96-well flat-bottom MaxiSorp plates) were coated with 20 μg/ml of each synthetic PSM peptides in PBS plus 0.05% NaN3, and incubated overnight at 4° C. The plates were washed with PBS containing 0.05% Tween-20, and blocked for 1 hour at room temperature with 1% BSA (Sigma) and 0.05% NaN3 in PBS. Serum samples were diluted in assay diluent (Tris-buffered saline containing 0.1% BSA and 0.05% Tween-20, pH 7.2), and added to the washed wells at 100 μl/well for an incubation of 2 hours at room temperature. Plates were washed again and HRP-labeled goat anti-mouse IgG (R&D Systems) and goat anti-mouse IgM (Jackson ImmunoResearch Laboratory) were diluted in assay diluent and added to the plates at 100 μl/well for an incubation of 1 hour at room temperature in order to detect PSM specific mouse IgG and IgM, respectively. Plates were washed again and a substrate solution containing equal volume of Tetramethylbenzidine and H2O2 was added to the plates at 100 μl/well for color development. The reaction was terminated by adding 50 μl of 1 M H2SO4 to each well, and optical density (O.D.) was measured at 450 nm using an ELISA plate reader.

Setting [4] is: N-formylated synthetic PSM peptides, BALB/c mice (FIG. 11).
Where [5] appears, read: non N-formylated synthetic PSM peptides, BALB/c mice (FIG. 12).

The term MIC denotes the smallest concentration in the dilution series that meets the test's criterion for growth inhibition.

On to `CN[C@H](CC(C)C)C(=O)N[C@H]1C(=O)N[C@@H](CC(N)=O)C(=O)N[C@H]2C(=O)N[C@H]3C(=O)N[C@H](C(=O)N[C@H](C(=O)O)c4cc(O)cc(O)c4-c4cc3ccc4O)[C@H](O)c3ccc(c(Cl)c3)Oc3cc2cc(c3O[C@@H]2O[C@H](CO)[C@@H](O)[C@H](O)[C@H]2O[C@H]2C[C@](C)(N)[C@H](O)[C@H](C)O2)Oc2ccc(cc2Cl)[C@H]1O` [vancomycin], for which the “minimum inhibitory concentration [MIC]” value with MRSA strains (MRSA strains with decreased susceptibility to vancomycin) was 8 to 16 µg/mL. Also, the MIC with MRSA strains (strains fully resistant to vancomycin) is no less than 32 µg/mL.
“fMEFVAKLFKFFADLLGKFLGNN (For-MEFVAKLFKFFADLLGKFLGNN; listed as Staphylococcus aureus) [#10]”: the Neutrophil lysis result with human neutrophils [1] is reported as “x”. Further, in the experiment with human PMN, the IL-8 result was “xx”. In the experiment with human neutrophils [2], the CD11b result is reported as “xx”.
On to fMEFVAKLFKFFKALLGKFLGNN [#11], for which the IL-8 entry in the experiment with human PMN is listed as “xx”.
Regarding fMAFVAKLFKFFKDLLGKFLGNN [#1], the Neutrophil lysis entry in the experiment on human neutrophils [1] is on record as “xx”. In addition, the CD11b result in the experiment on human neutrophils [2] is reported as “x”.
With fMEFVAKLFKFFKDLLAKFLGNN [#14], in the experiment on human PMN, the IL-8 result is on record as “xx”.
Consider MAIVGTIIKIIKAIIDIFAK [PSMα4], for which the “specific antibody production in vivo” value in experiment [3] (setting [4]) was “most robust antibody production”.
On to “MGIIAGIIKVIKSLIEQFTGK (S. aureus) [PSMα1]”, for which the entries for the “specific antibody production in vivo” value in experiment [3] (setting [4]) and in experiment [3] (setting [5]) were “most robust antibody production” and “strongest response”, respectively.
For “fMEFAAKLFKFFKDLLGKFLGNN (For-MEFAAKLFKFFKDLLGKFLGNN; listed as Staphylococcus aureus) [#3]”, the IL-8 result in the experiment with human PMN is “xx”.
fMEFVAKLFKFFKDLLGAFLGNN [#15]: the Neutrophil lysis result in the experiment on human neutrophils [1] is “xx”. Besides, the IL-8 entry in the experiment with human PMN is on record as “xx”.
fMEFVAKLFKFFKDLLGKFLGNA [#20]: the Neutrophil lysis result in the experiment on human neutrophils [1] is given as “x”. Also, the IL-8 result in the experiment with human PMN is on record as “xx”. Besides, in the experiment with human neutrophils [2], the CD11b result is “x”.
As for “MEGLFNAIKDTVTAAINNDGAKLGTSIVSIVENGVGLLGKLFGF (S. aureus) [PSMβ1]”, in experiment [3] (setting [5]), the “specific antibody production in vivo” value is given as “strongest response”.
Regarding fMEFVAKLFAFFKDLLGKFLGNN [#7], the IL-8 entry in the experiment with human PMN was “xx”.
Consider “fMEFVAKAFKFFKDLLGKFLGNN (For-MEFVAKAFKFFKDLLGKFLGNN; listed as Staphylococcus aureus) [#5]”, for which the Neutrophil lysis result in the experiment on human neutrophils [1] is listed as “xx”.
Regarding “MEFVAKLFKFFKDLLGKFLGNN [PSMα3, no formyl]”, in the experiment with human neutrophils [1], the “ability to promote neutrophil lysis” value is “reduced ability” and the Neutrophil lysis result is recorded as “x”. For the same compound, in the experiment on human PMN, the IL-8 secretion entry is given as “strongly reduced ability” and the IL-8 result was “xx”. Further, in the experiment with human neutrophils [2], the “ability to increase CD11b expression” value was “strongly reduced ability” and the CD11b result is “xx”.
With “fMEFVAALFKFFKDLLGKFLGNN (For-MEFVAALFKFFKDLLGKFLGNN; listed as Staphylococcus aureus) [#4]”, the Neutrophil lysis result in the experiment on human neutrophils [1] is “xx”. Moreover, the IL-8 result in the experiment on human PMN was “xx”.
Consider fMEFVAKLFKFFKDLLGKFLGAN [#19], for which, in the experiment with human neutrophils [1], the “ability to promote neutrophil lysis” value is recorded as “greatest reduction” and the Neutrophil lysis entry is “xx”. Moreover, in the experiment with human PMN, the IL-8 secretion result is reported as “greatest reduction” and the IL-8 result is “xx”. Besides, in the experiment on human neutrophils [2], the “ability to increase CD11b expression” value is recorded as “greatest reduction” and the CD11b result was “xx”.
